Where two headings read alike, the source gives them in different places.
Key:
VEGFRI = settings: cited from earlier work
VEGFRII = settings: cited from earlier work
PDGFR β = settings: Fig. 2, reported multi-kinase inhibitors; read-out: PDGFB IC50; cited from earlier work
VEGFRIII = settings: cited from earlier work
FGFRI = settings: read-out: IC50 FGFRI; cited from earlier work
FGFRII = settings: cited from earlier work
PDGFR α = settings: cited from earlier work
PDGF = settings: Fig. 2, reported multi-kinase inhibitors; cited from earlier work
[1] = cited from earlier work
hCA II [2] = molecular target: T1, hCA II (Homo sapiens, UniProt P00918); set-up: made in house; method as in PMID 15499993, PMID 12678681, PMID 31313595, PMID 26745009; settings: reported CAIs, Fig. 1; cited from earlier work
hCA IX [3] = molecular target: T2, hCA IX (Homo sapiens, UniProt Q16790); set-up: made in house; settings: reported CAIs, Fig. 1; cited from earlier work
hCA XII [4] = molecular target: T3, hCA XII (Homo sapiens, UniProt O43570); set-up: made in house; settings: reported CAIs, Fig. 1; cited from earlier work
T3 sequence (O43570 25-354): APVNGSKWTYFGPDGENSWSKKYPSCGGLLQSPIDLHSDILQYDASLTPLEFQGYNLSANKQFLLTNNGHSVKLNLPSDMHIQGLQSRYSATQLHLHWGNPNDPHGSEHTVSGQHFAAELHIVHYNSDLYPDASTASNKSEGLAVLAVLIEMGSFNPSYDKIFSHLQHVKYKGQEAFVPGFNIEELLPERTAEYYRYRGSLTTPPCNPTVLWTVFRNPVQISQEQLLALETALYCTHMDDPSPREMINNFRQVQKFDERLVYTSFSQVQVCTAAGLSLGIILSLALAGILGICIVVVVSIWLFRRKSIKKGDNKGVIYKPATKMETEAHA

786-0 = test: NCI-60 single-dose antiproliferative assay (SRB); assay type: cell-based; settings: Homo sapiens; 10 μM single dose; 786-0, Renal cancer; read-out: Cell Growth inhibition Percent
Method: (§1) From the newly synthesized compounds, eleven compounds (4c, 4d, 5, 9a, 9b, 11a, 11b, 13b, 13c, 15b, and 15c) were selected by the National Cancer Institute (NCI) Developmental Therapeutics Program (DTP), Bethesda, Maryland, USA for the in vitro anti-proliferative activity evaluation. The selected compounds were examined at 10 μM dose against the NCI 60-cell line panel. This panel consists of nine cell line groups of leukemia, non-small cell lung carcinoma (NSCLC), melanoma, colon, CNS, ovarian, renal, prostate, and breast cancers. The results are reported as mean-graph of the percent growth relative to control and presented as percentage growth inhibition (GI%), furthermore, mean GI% of each compound over all panel cell lines was calculated (Table 1; Additional file 1; S3: In vitro biological activity).
(§2) From the newly synthesized compounds, eleven compounds were selected by the National Cancer Institute (NCI) Developmental Therapeutics Program (DTP), Bethesda, Maryland, USA for the in vitro anti-proliferative activity evaluation (For further details see supplementary materials).
(§3) NCI In-vitro Cancer Screening is a two-phase procedure that starts with the assessment of all compounds against the sixty NCI cell line panel depicting leukemia, NSCLC, CNS cancer, melanoma, prostate cancer, breast cancer, renal cancer, colon cancer and ovarian cancer cell lines at a single point of 10μM. The output from the single-dose screen is reportable as a mean graph.
(§4) The human tumor cell lines of the cancer screening panel were grown in RPMI 1640 medium containing 5% fetal bovine serum and 2 mM L-glutamine. For a typical screening experiment, cells were inoculated into 96 well microtiter plates in […] at plating densities ranging from 5000 to 40,000 cells/well depending on the doubling time of individual cell lines. After cell inoculation, the microtiter plates were incubated at 37 °C, 5% CO2, 95% air and 100% relative humidity for 24 h prior to addition of experimental drugs. After 24 h, two plates of each cell line were fixed in situ with trichloroacetic acid (TCA), to represent a measurement of the cell population for each cell line at the time of drug addition (Tz). Experimental drugs were solubilized in dimethyl sulfoxide at 400-fold the desired final maximum test concentration and stored frozen prior to use. At the time of drug addition, an aliquot of frozen concentrate was thawed and diluted to twice the desired final maximum test concentration with complete medium containing 50 µg/ml gentamicin. Aliquot of 100 µl of the drug dilution was added to the appropriate microtiter wells already containing 100 µl of medium, resulting in the required final drug concentration (10 µM). Triplicate wells were prepared for each individual dose. Following drug addition, the plates were incubated for an additional 48 h at 37 °C, 5% CO2, 95% air, and 100% relative humidity. For adherent cells, the assay was terminated by the addition of cold TCA. Cells were fixed in situ by the gentle addition of 50 µl of cold 50% (w/v) TCA (final concentration, 10% TCA) and incubated for 60 min at 4 °C. The supernatant was discarded, and the plates were washed five times with tap water and air dried. Sulforhodamine B (SRB) solution (100 µl) at 0.4% (w/v) in 1% acetic acid was added to each well, and plates were incubated for 10 min at room temperature. After staining, unbound dye was removed by washing five times with 1% acetic acid and the plates were air dried. Bound stain was subsequently solubilized with 10 mM trizma base, and the absorbance was read on an automated plate reader at a wavelength of 515 nm. For suspension cells, the methodology was the same except that the assay was terminated by fixing settled cells at the bottom of the wells by gently adding 50 µl of 80% TCA (final concentration, 16% TCA). […]

A498 = test: NCI-60 single-dose antiproliferative assay (SRB); assay type: cell-based; settings: Homo sapiens; 10 μM single dose; A498, Renal cancer; read-out: Cell Growth inhibition Percent
Method: as §1, §2, §3, §4

CAKI-1 = test: NCI-60 single-dose antiproliferative assay (SRB); assay type: cell-based; settings: Homo sapiens; 10 μM single dose; CAKI-1, Renal cancer; read-out: Cell Growth inhibition Percent
Method: as §1, §2, §3, §4

HL-60(TB) = test: NCI-60 single-dose antiproliferative assay (SRB); assay type: cell-based; settings: Homo sapiens, 10 μM single dose, Leukemia, read-out: Cell Growth inhibition Percent
Method: as §1, §2, §3, §4

HOP-92 = test: NCI-60 single-dose antiproliferative assay (SRB); assay type: cell-based; settings: Homo sapiens; 10 μM single dose; HOP-92, Non-small cell lung cancer; read-out: Cell Growth inhibition Percent
Method: as §1, §2, §3, §4

K-562 = test: NCI-60 single-dose antiproliferative assay (SRB); assay type: cell-based; settings: Homo sapiens, K562; 10 μM single dose; K-562, Leukemia; read-out: Cell Growth inhibition Percent
Method: as §1, §2, §3, §4

KM12 = test: NCI-60 single-dose antiproliferative assay (SRB); assay type: cell-based; settings: Homo sapiens; 10 μM single dose; KM12, Colon cancer; read-out: Cell Growth inhibition Percent
Method: as §1, §2, §3, §4

MCF7 = test: NCI-60 single-dose antiproliferative assay (SRB); assay type: cell-based; settings: Homo sapiens; 10 μM single dose; MCF7, Breast cancer; read-out: Cell Growth inhibition Percent
Method: as §1, §2, §3, §4

MDA-MB-231/ATCC = test: NCI-60 single-dose antiproliferative assay (SRB); assay type: cell-based; settings: Homo sapiens, 10 μM single dose, Breast cancer, read-out: Cell Growth inhibition Percent
Method: as §1, §2, §3, §4

NCI-H23 = test: NCI-60 single-dose antiproliferative assay (SRB); assay type: cell-based; settings: Homo sapiens; 10 μM single dose; NCI-H23, Non-small cell lung cancer; read-out: Cell Growth inhibition Percent
Method: as §1, §2, §3, §4

NCI-H522 = test: NCI-60 single-dose antiproliferative assay (SRB); assay type: cell-based; settings: Homo sapiens; 10 μM single dose; NCI-H522, Non-small cell lung cancer; read-out: Cell Growth inhibition Percent
Method: as §1, §2, §3, §4

RPMI-8226 = test: NCI-60 single-dose antiproliferative assay (SRB); assay type: cell-based; settings: Homo sapiens; 10 μM single dose; RPMI-8226, Leukemia; read-out: Cell Growth inhibition Percent
Method: as §1, §2, §3, §4

SK-MEL-5 = test: NCI-60 single-dose antiproliferative assay (SRB); assay type: cell-based; settings: Homo sapiens; 10 μM single dose; SK-MEL-5, Melanoma; read-out: Cell Growth inhibition Percent
Method: as §1, §2, §3, §4

SN12C = test: NCI-60 single-dose antiproliferative assay (SRB); assay type: cell-based; settings: Homo sapiens, 10 μM single dose, Renal cancer, read-out: Cell Growth inhibition Percent
Method: as §1, §2, §3, §4

SR = test: NCI-60 single-dose antiproliferative assay (SRB); assay type: cell-based; settings: Homo sapiens, 10 μM single dose, Leukemia, read-out: Cell Growth inhibition Percent
Method: as §1, §2, §3, §4

T-47D = test: NCI-60 single-dose antiproliferative assay (SRB); assay type: cell-based; settings: Homo sapiens, T47D, 10 μM single dose, Breast cancer, read-out: Cell Growth inhibition Percent
Method: as §1, §2, §3, §4

UO-31 = test: NCI-60 single-dose antiproliferative assay (SRB); assay type: cell-based, human; settings: Homo sapiens, UO-31, 10 μM single dose; UO-31, Renal cancer; read-out: Cell Growth inhibition Percent
Method: as §1, §2, §3, §4

hCA I = hCA I (Homo sapiens, UniProt P00915); test: Stopped flow CO2 hydrase assay
Chain of hCA I (P00915 whole entry): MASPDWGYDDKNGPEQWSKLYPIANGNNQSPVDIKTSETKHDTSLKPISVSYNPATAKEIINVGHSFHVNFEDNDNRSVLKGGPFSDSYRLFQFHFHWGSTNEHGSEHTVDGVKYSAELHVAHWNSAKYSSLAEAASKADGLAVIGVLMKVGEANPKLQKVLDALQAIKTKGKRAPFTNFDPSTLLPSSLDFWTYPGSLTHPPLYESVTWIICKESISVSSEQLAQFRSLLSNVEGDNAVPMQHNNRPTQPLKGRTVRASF

hCA II [5] = molecular target: T1, hCA II; test: Stopped flow CO2 hydrase assay
hCA IX [6] = molecular target: T2, hCA IX; test: Stopped flow CO2 hydrase assay
hCA XII [7] = molecular target: T3, hCA XII; test: Stopped flow CO2 hydrase assay
VEGF = settings: Fig. 2, reported multi-kinase inhibitors; cited from earlier work

For `CNC(=O)c1cc(Oc2ccc(NC(=O)Nc3ccc(Cl)c(C(F)(F)F)c3)c(F)c2)ccn1` [Regorafenib], the IC50 (VEGFRI; Fig. 2, reported multi-kinase inhibitors, read-out: VEGFI IC50) is given as 13 nM, the IC50 (VEGFRII; Fig. 2, reported multi-kinase inhibitors, read-out: VEGFII IC50) is given as 42 nM and the IC50 (PDGFR β) is given as 22 nM.
For `COC(=O)c1ccc2c(c1)NC(=O)/C2=C(\Nc1ccc(N(C)C(=O)CN2CCN(C)CC2)cc1)c1ccccc1` [Nintedanib], the IC50 (VEGFRI; read-out: IC50 VEGFRI) is listed as 34 nM, the IC50 (VEGFRII; read-out: IC50 VEGFRII) is listed as 13 nM and the IC50 (VEGFRIII) is listed as 13 nM. For the same compound, the IC50 (FGFRI) was 69 nM, the IC50 (FGFRII) was 37 nM and the IC50 (PDGFR α) was 59 nM. The IC50 (PDGF) was 59 nM.
For `COc1ccc(C2=NN(c3nc4ccccc4s3)C(c3cc(OC)c(OC)c(OC)c3)C2)cc1` (stereo not drawn) [VIII], the “Tumor selectivity (TS)” value ([1]; Fig. 1) is given as 29.3, the IC50 ([1]; Fig. 1, read-out: Cytotoxicity average IC50) is given as 18700 nM and the Ki (hCA II [2]) is given as 22700 nM.
For `O=C(O)c1cc(Sc2ccccn2)cc([N+](=O)[O-])c1` [V], the Ki (hCA IX [3]) is listed as 18 nM and the Ki (hCA XII [4]) is listed as 82.1 nM.
For `O=C1Nc2ccccc2C1=CNc1ccc(C(=O)C=CNc2ccc(S(=O)(=O)Nc3ncccn3)cc2)cc1` [Compound 13b, 4-{[3-Oxo-3-(4-{[(2-oxoindolin-3-ylidene)methyl]amino}phenyl)prop-1-en-1-yl]amino}-N-(pyrimidin-2-yl)benzenesulfonamide], the inhibition at 10 µM (786-0) was 3.85%, the inhibition at 10 µM (A498) was 1.46% and the inhibition at 10 µM (CAKI-1) was 5.62%. The inhibition at 10 µM (HL-60(TB)) was 0.37%, the inhibition at 10 µM (HOP-92) was 6.38% and the inhibition at 10 µM (K-562) was 2.89%. It also gave an inhibition at 10 µM (KM12) of 62.7%, an inhibition at 10 µM (MCF7) of 12.6% and an inhibition at 10 µM (MDA-MB-231/ATCC) of 0.12%. The inhibition at 10 µM (NCI-H23) was 3.53%, the inhibition at 10 µM (NCI-H522) was 1.35% and the inhibition at 10 µM (RPMI-8226) was 13.6%. For the same compound, the inhibition at 10 µM (SK-MEL-5) was 1.85%, the inhibition at 10 µM (SN12C) was 1.75% and the inhibition at 10 µM (SR) was 17.9%. It also gave an inhibition at 10 µM (T-47D) of 6.91%, an inhibition at 10 µM (UO-31) of 7.6% and a melting point of 290 to 294 °C. For the same compound, the Ki (hCA I) was > 10000 nM, the Ki (hCA II [5]) was > 10000 nM and the Ki (hCA IX [6]) was > 10000 nM. The Ki (hCA XII [7]) was > 10000 nM.
For `O=S(=O)(Nc1nc2ccc(Cl)cc2s1)c1ccc(F)cc1` [VI], the Ki (hCA IX [3]) is given as 950 nM and the Ki (hCA XII [4]) is given as 85 nM.
In the case of `CCN(CC)CCNC(=O)c1c(C)[nH]c(/C=C2\C(=O)Nc3ccc(F)cc32)c1C` [Sunitinib], the IC50 ([1]; Fig. 2, read-out: cytotoxicity average IC50) is given as 8110 nM, the IC50 (PDGF) is given as 2 nM and the IC50 (VEGF) is given as 80 nM.

From PMC10353187, “Discovery of a new potent oxindole multi-kinase inhibitor among a series of designed 3-alkenyl-oxindoles with ancillary carbonic anhydrase inhibitory activity as antiproliferative agents” (BMC Chemistry, 2023)
